# Test results taken from patent US7763625B2, “Agents for treating migraine” (Kyowa Hakko Kirin Co., Ltd., priority 2004, dated 2010).
# Tested on: basilar (cerebral) arteries
# Experiment: Contractile effects on basilar arteries (suppression of adenosine-induced relaxation of isolated cerebral artery rings)
# Parameters: species or system Dogs
# Settings: isolated dog basilar artery rings relaxed with adenosine; test compound added cumulatively; in comparison with the Vehicle group
# Source text: Dogs were anesthetized by intravenous injection of sodium pentobarbital, after which they were euthanized by exsanguination and subjected to craniotomy.
# The basilar (cerebral) arteries were removed and cut into rings segments of about 2 mm in width. Each ring segment was fixed with a silk thread to a needle cut into about 2 mm in length. The needle was attached to a holder provided in an Easy-Magnus System (Model no. UC-2; IWASHIYA KISHIMOTO MEDICAL INSTRUMENTS); the ring segments were immersed in a nutritive solution and allowed to stabilize at a resting tension of 0.2 g (1.96 mN) for more than 60 minutes. Into the organ bath (2 mL) of the Easy-Magnus System, the cerebral artery was relaxed by application of 2 μL of 10 mmol/L adenosine aqueous solution. After that, the test compound was added cumulatively; 1 μL of 0.2 mmol/L dimethylsulfoxide solution, 1 μL of 0.4 mmol/L dimethylsulfoxide solution, and 0.7 μL of 2 mmol/L dimethylsulfoxide solution in order (Test compound-added group). Separately, in the same manner as in the Test compound-added group, dimethylsulfoxide alone was cumulatively added in place of the test compound (Vehicle group). The contraction of the cerebral artery was recorded on a recorder (Yokogawa) from an isometric force transducer (Nihon Kohden) connected to the holder, to which the ring was fixed, through a strain-pressure amplifier (Nihon Kohden). […]
compound,measurement,value
CCn1c(=O)c2c(nc(/C=C/c3ccc(OC)c(OC)c3)n2C)n(CC)c1=O [Compound 2],suppression of the adenosine-induced relaxation of the cerebral artery,dose-dependently and significantly suppressed
